{"source": "patent US6309839A", "about": "“Screening methods for compounds that inhibit or stimulate helicase enzyme activity” (Board of Trustees of the University of Arkansas, priority 2000, dated 2001)", "origin": "cited, not measured here", "molecular_target": "streptavidin (Streptomyces avidinii, UniProt P22629)", "sequence (P22629 25-183)": "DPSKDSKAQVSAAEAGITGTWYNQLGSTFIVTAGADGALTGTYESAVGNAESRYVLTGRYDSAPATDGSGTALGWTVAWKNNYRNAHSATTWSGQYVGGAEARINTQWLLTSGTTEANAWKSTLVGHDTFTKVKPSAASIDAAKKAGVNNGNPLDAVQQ", "details": "no helicase present", "data": [{"smiles": "O=C(O)CCCC[C@@H]1SC[C@@H]2NC(=O)N[C@@H]21", "note": "[biotin]", "values": [{"measurement": "spontaneous dissociation rate of streptavidin from biotin", "value": 0.00033, "unit": "min⁻¹"}]}]}
